Results from patent US6399745B1, “Use of leptin antagonists for treating insulin resistance in type II diabetes” (Aventis Pharma Deutschland GmbH, priority 1996, dated 2002).

Test system: isolated rat adipocytes
Experiment: Glucose transport (2-deoxyglucose uptake) in isolated rat adipocytes after primary culture with leptin, basal and insulin-stimulated
Format: cell-based
Conditions: for Glucose Transport, stimulation factor for insulin (stimulated/basal): Insulin concentration: 5 nM
Procedure: Adipocytes were prepared from the epididymal fat tissue of male Wistar rats (140-160 g, Hoechst AG breeding station, Kastengrund) by means of digesting with collagenase (Rodbell, 1964, J. Biol. Chem. 239, 375-380), washed twice with KRH (25 mM Hepes free acid, 25 mM Hepes sodium salt, 80 mM NaCl, 1 mM MgSO4, 2 mM CaCl2, 6 mM KCl, 1 mM sodium pyruvate, 0.5% BSA) and once with DMEM (Dulbecco's minimal essential medium), supplemented with 5.5 mM glucose, 20 mM Hepes (pH 7.4), 2% fetal calf serum, 1% BSA, 50 U of penicillin/ml, […], by means of flotation (800×g, 1 min, in small plastic tubes), and finally diluted to a volume of 20 ml of DMEM/g wet weight of the fat tissue (cell titer: approximately 2.5×10^5 cells/ml).
The adipocytes were incubated, at 37° C. for 15-18 h under an atmosphere of 5% CO2 and with gentle shaking, in supplemented (see above) DMEM in the presence of 100 nM phenylisopropyladenosine (4 ml of DMEM to 1 ml of cells, cell titer approximately 5×10^4 cell/ml, in 50 ml sterile polypropylene: tubes) and in the presence or absence of leptin. The adipocytes were subsequently washed three times with cold KRH and adjusted to a cell titer of approximately 3×10^5 cells/ml by adding 0.7 ml of glucose-free KRH to the cell layer which remained after the complete removal of the last washing solution. In order to determine the capacity of the adipocytes to be stimulated by insulin, and their sensitivity to insulin, following the primary culture, the washed adipocytes were incubated at 37° C. for 20 min in the absence or presence of human insulin (0.02-50 nM final concentration), and glucose transport or lipogenesis was then measured.
Glucose transport was measured as the specific uptake of the non-metabolizable glucose analog 2-deoxyglucose (Muller and Wied, 1993, Diabetes 42, 1852-1867). 50 μl of the adipocyte suspension in KRH, which suspension had or had not been preincubated with insulin (see above), were incubated, at 25° C. for 5 min, with 50 μl of KRH which was supplemented with 2-deoxy-D-[2,6-^3H]glucose (0.5 μCi, 0.2 mM). The incubation mixtures were transferred to thin soft-plastic centrifuge tubes, each of which already contained 200 μl of dinonyl phthalate oil, and immediately centrifuged (2,000×g, 30 sec). Using special shears, the tubes were severed within the oil layer (in the vicinity of the upper edge) and the upper halves of the tubes, together with the cell layers which had in each case been floated onto the oil layer, were transferred to scintillation vials. After 10 ml of scintillation fluid (water-based) had been added, the radioactivity associated with the cells was measured. In order to correct for 2-deoxyglucose which had become enclosed in the cell interstices, or had diffused into the cells, in a non-specific manner, the radioactivity of cells which had been preincubated with cytochalasin B (20 μM) was subtracted from the total cell-associated radioactivity of each individual incubation mixture (Gliemann et al., 1972, Biochim. Biophys. Acta 286, 1-9).
Isolated rat adipocytes were incubated for 15 h in primary culture in the presence or absence of increasing concentrations of leptin. […] The stimulation factor for insulin was calculated as the ratio between insulin-stimulated and basal activities. Each value represents the mean from two independent adipocyte cultures with activity being determined two or three times in each case.
The cells were then washed and tested for the stimulation of glucose transport by differing concentrations of insulin. Glucose transport activity is given as a “dpm value” of the 2deoxy-[^3H]glucose which is specifically associated with the cells. Each value represents the mean from two independent adipocyte cultures with the activity being determined four times in each case.

Substance: Leptin
- leptin concentration at which effects can already be detected in vitro (insulin dose/effect curves at different leptin concentrations): 0.5 to 1 nM
- glucose transport, uptake of 3H-labeled 2-deoxyglucose (leptin 0.05 nM 16.5 h, insulin 0.02 nM): 735 dpm
- glucose transport, uptake of 3H-labeled 2-deoxyglucose (leptin 0.05 nM 16.5 h, insulin 0.05 nM): 1025 dpm
- glucose transport, uptake of 3H-labeled 2-deoxyglucose (leptin 0.05 nM 16.5 h, insulin 0.1 nM): 1674 dpm
- glucose transport, uptake of 3H-labeled 2-deoxyglucose (leptin 0.05 nM 16.5 h, insulin 0.2 nM): 3320 dpm
- glucose transport, uptake of 3H-labeled 2-deoxyglucose (leptin 0.05 nM 16.5 h, insulin 0.5 nM): 5138 dpm
- glucose transport, uptake of 3H-labeled 2-deoxyglucose (leptin 0.05 nM 16.5 h, insulin 1 nM): 6834 dpm
- glucose transport, uptake of 3H-labeled 2-deoxyglucose (leptin 0.05 nM 16.5 h, insulin 2 nM): 7942 dpm
- glucose transport, uptake of 3H-labeled 2-deoxyglucose (leptin 0.05 nM 16.5 h, insulin 5 nM): 8794 dpm
- glucose transport, uptake of 3H-labeled 2-deoxyglucose (leptin 0.05 nM 16.5 h, insulin 10 nM): 9134 dpm
- glucose transport, uptake of 3H-labeled 2-deoxyglucose (leptin 0.05 nM 16.5 h, insulin 50 nM): 9189 dpm
- glucose transport, uptake of 3H-labeled 2-deoxyglucose (leptin 0.05 nM 16.5 h, no insulin (basal)): 654 dpm
- Glucose Transport, stimulation factor for insulin (stimulated/basal) (leptin 0.3 nM 15 h): 13.4
- Glucose Transport, stimulation factor for insulin (stimulated/basal) (leptin 1 nM 15 h): 11.75
- glucose transport, uptake of 3H-labeled 2-deoxyglucose (leptin 1 nM 16.5 h, insulin 0.02 nM): 678 dpm
- glucose transport, uptake of 3H-labeled 2-deoxyglucose (leptin 1 nM 16.5 h, insulin 0.05 nM): 824 dpm
- glucose transport, uptake of 3H-labeled 2-deoxyglucose (leptin 1 nM 16.5 h, insulin 0.1 nM): 1189 dpm
- glucose transport, uptake of 3H-labeled 2-deoxyglucose (leptin 1 nM 16.5 h, insulin 0.2 nM): 1587 dpm
- glucose transport, uptake of 3H-labeled 2-deoxyglucose (leptin 1 nM 16.5 h, insulin 0.5 nM): 2180 dpm
- glucose transport, uptake of 3H-labeled 2-deoxyglucose (leptin 1 nM 16.5 h, insulin 1 nM): 3904 dpm
- glucose transport, uptake of 3H-labeled 2-deoxyglucose (leptin 1 nM 16.5 h, insulin 2 nM): 5510 dpm
- glucose transport, uptake of 3H-labeled 2-deoxyglucose (leptin 1 nM 16.5 h, insulin 5 nM): 6985 dpm
- glucose transport, uptake of 3H-labeled 2-deoxyglucose (leptin 1 nM 16.5 h, insulin 10 nM): 8241 dpm
- glucose transport, uptake of 3H-labeled 2-deoxyglucose (leptin 1 nM 16.5 h, insulin 50 nM): 8932 dpm
- glucose transport, uptake of 3H-labeled 2-deoxyglucose (leptin 1 nM 16.5 h, no insulin (basal)): 634 dpm
- glucose transport, uptake of 3H-labeled 2-deoxyglucose (leptin 2 nM 16.5 h, insulin 0.02 nM): 704 dpm
- glucose transport, uptake of 3H-labeled 2-deoxyglucose (leptin 2 nM 16.5 h, insulin 0.05 nM): 755 dpm
- glucose transport, uptake of 3H-labeled 2-deoxyglucose (leptin 2 nM 16.5 h, insulin 0.1 nM): 860 dpm
- glucose transport, uptake of 3H-labeled 2-deoxyglucose (leptin 2 nM 16.5 h, insulin 0.2 nM): 1006 dpm
- glucose transport, uptake of 3H-labeled 2-deoxyglucose (leptin 2 nM 16.5 h, insulin 0.5 nM): 1377 dpm
- glucose transport, uptake of 3H-labeled 2-deoxyglucose (leptin 2 nM 16.5 h, insulin 1 nM): 1916 dpm
- glucose transport, uptake of 3H-labeled 2-deoxyglucose (leptin 2 nM 16.5 h, insulin 2 nM): 2680 dpm
- glucose transport, uptake of 3H-labeled 2-deoxyglucose (leptin 2 nM 16.5 h, insulin 5 nM): 4323 dpm
- glucose transport, uptake of 3H-labeled 2-deoxyglucose (leptin 2 nM 16.5 h, insulin 10 nM): 6107 dpm
- glucose transport, uptake of 3H-labeled 2-deoxyglucose (leptin 2 nM 16.5 h, insulin 50 nM): 7032 dpm
- glucose transport, uptake of 3H-labeled 2-deoxyglucose (leptin 2 nM 16.5 h, no insulin (basal)): 688 dpm
- Glucose Transport, stimulation factor for insulin (stimulated/basal) (leptin 3 nM 15 h): 7.4
- glucose transport, uptake of 3H-labeled 2-deoxyglucose (leptin 5 nM 16.5 h, insulin 0.02 nM): 734 dpm
- glucose transport, uptake of 3H-labeled 2-deoxyglucose (leptin 5 nM 16.5 h, insulin 0.05 nM): 798 dpm
- glucose transport, uptake of 3H-labeled 2-deoxyglucose (leptin 5 nM 16.5 h, insulin 0.1 nM): 883 dpm
- glucose transport, uptake of 3H-labeled 2-deoxyglucose (leptin 5 nM 16.5 h, insulin 0.2 nM): 923 dpm
- glucose transport, uptake of 3H-labeled 2-deoxyglucose (leptin 5 nM 16.5 h, insulin 0.5 nM): 1167 dpm
- glucose transport, uptake of 3H-labeled 2-deoxyglucose (leptin 5 nM 16.5 h, insulin 1 nM): 1583 dpm
- glucose transport, uptake of 3H-labeled 2-deoxyglucose (leptin 5 nM 16.5 h, insulin 2 nM): 2140 dpm
- glucose transport, uptake of 3H-labeled 2-deoxyglucose (leptin 5 nM 16.5 h, insulin 5 nM): 2950 dpm
- glucose transport, uptake of 3H-labeled 2-deoxyglucose (leptin 5 nM 16.5 h, insulin 10 nM): 3682 dpm
- glucose transport, uptake of 3H-labeled 2-deoxyglucose (leptin 5 nM 16.5 h, insulin 50 nM): 4031 dpm
- glucose transport, uptake of 3H-labeled 2-deoxyglucose (leptin 5 nM 16.5 h, no insulin (basal)): 712 dpm
- Glucose Transport, stimulation factor for insulin (stimulated/basal) (leptin 10 nM 15 h): 3.5
- glucose transport, uptake of 3H-labeled 2-deoxyglucose (leptin 10 nM 16.5 h, insulin 0.02 nM): 773 dpm
- glucose transport, uptake of 3H-labeled 2-deoxyglucose (leptin 10 nM 16.5 h, insulin 0.05 nM): 802 dpm
- glucose transport, uptake of 3H-labeled 2-deoxyglucose (leptin 10 nM 16.5 h, insulin 0.1 nM): 856 dpm
- glucose transport, uptake of 3H-labeled 2-deoxyglucose (leptin 10 nM 16.5 h, insulin 0.2 nM): 941 dpm
- glucose transport, uptake of 3H-labeled 2-deoxyglucose (leptin 10 nM 16.5 h, insulin 0.5 nM): 1209 dpm
- glucose transport, uptake of 3H-labeled 2-deoxyglucose (leptin 10 nM 16.5 h, insulin 1 nM): 1573 dpm
- glucose transport, uptake of 3H-labeled 2-deoxyglucose (leptin 10 nM 16.5 h, insulin 2 nM): 2061 dpm
- glucose transport, uptake of 3H-labeled 2-deoxyglucose (leptin 10 nM 16.5 h, insulin 5 nM): 2476 dpm
- glucose transport, uptake of 3H-labeled 2-deoxyglucose (leptin 10 nM 16.5 h, insulin 10 nM): 2710 dpm
- glucose transport, uptake of 3H-labeled 2-deoxyglucose (leptin 10 nM 16.5 h, insulin 50 nM): 2967 dpm
- glucose transport, uptake of 3H-labeled 2-deoxyglucose (leptin 10 nM 16.5 h, no insulin (basal)): 755 dpm
- Glucose Transport, stimulation factor for insulin (stimulated/basal) (leptin 30 nM 15 h): 2.35
- glucose transport, uptake of 3H-labeled 2-deoxyglucose (leptin 30 nM 16.5 h, insulin 0.02 nM): 704 dpm
- glucose transport, uptake of 3H-labeled 2-deoxyglucose (leptin 30 nM 16.5 h, insulin 0.05 nM): 745 dpm
- glucose transport, uptake of 3H-labeled 2-deoxyglucose (leptin 30 nM 16.5 h, insulin 0.1 nM): 789 dpm
- glucose transport, uptake of 3H-labeled 2-deoxyglucose (leptin 30 nM 16.5 h, insulin 0.2 nM): 852 dpm
- glucose transport, uptake of 3H-labeled 2-deoxyglucose (leptin 30 nM 16.5 h, insulin 0.5 nM): 943 dpm
- glucose transport, uptake of 3H-labeled 2-deoxyglucose (leptin 30 nM 16.5 h, insulin 1 nM): 1183 dpm
- glucose transport, uptake of 3H-labeled 2-deoxyglucose (leptin 30 nM 16.5 h, insulin 2 nM): 1374 dpm
- glucose transport, uptake of 3H-labeled 2-deoxyglucose (leptin 30 nM 16.5 h, insulin 5 nM): 1782 dpm
- glucose transport, uptake of 3H-labeled 2-deoxyglucose (leptin 30 nM 16.5 h, insulin 10 nM): 1972 dpm
- glucose transport, uptake of 3H-labeled 2-deoxyglucose (leptin 30 nM 16.5 h, insulin 50 nM): 2114 dpm
- glucose transport, uptake of 3H-labeled 2-deoxyglucose (leptin 30 nM 16.5 h, no insulin (basal)): 688 dpm
- Glucose Transport, stimulation factor for insulin (stimulated/basal) (leptin 100 nM 15 h): 1.5
- glucose transport, uptake of 3H-labeled 2-deoxyglucose (leptin 100 nM 16.5 h, insulin 0.02 nM): 766 dpm
- glucose transport, uptake of 3H-labeled 2-deoxyglucose (leptin 100 nM 16.5 h, insulin 0.05 nM): 780 dpm
- glucose transport, uptake of 3H-labeled 2-deoxyglucose (leptin 100 nM 16.5 h, insulin 0.1 nM): 803 dpm
- glucose transport, uptake of 3H-labeled 2-deoxyglucose (leptin 100 nM 16.5 h, insulin 0.2 nM): 813 dpm
- glucose transport, uptake of 3H-labeled 2-deoxyglucose (leptin 100 nM 16.5 h, insulin 0.5 nM): 883 dpm
- glucose transport, uptake of 3H-labeled 2-deoxyglucose (leptin 100 nM 16.5 h, insulin 1 nM): 896 dpm
- glucose transport, uptake of 3H-labeled 2-deoxyglucose (leptin 100 nM 16.5 h, insulin 2 nM): 1034 dpm
- glucose transport, uptake of 3H-labeled 2-deoxyglucose (leptin 100 nM 16.5 h, insulin 5 nM): 1205 dpm
- glucose transport, uptake of 3H-labeled 2-deoxyglucose (leptin 100 nM 16.5 h, insulin 10 nM): 1451 dpm
- glucose transport, uptake of 3H-labeled 2-deoxyglucose (leptin 100 nM 16.5 h, insulin 50 nM): 1723 dpm
- glucose transport, uptake of 3H-labeled 2-deoxyglucose (leptin 100 nM 16.5 h, no insulin (basal)): 747 dpm
- insulin sensitivity of stimulation of glucose transport (leptin, basal values unaffected): drastically reduced
